These results are taken from ChEMBL document CHEMBL1201862, “PubChem BioAssay data set” (2004).

Structures are written as SMILES.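 Cultured in 96-well plates, cells were exposed to test compound for 48 hours across five concentrations. Abbreviation: GI50, concentration required for 50% inhibition of growth.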 Calls of active or inactive are those of the source. Cut-off read from the data, not from the text of the source: active = GI50 up to about 1.1 µM and inactive = higher.

Some test systems named below: HOP-92; EKVX; 786-0; OVCAR-5; TK-10; NCI-H522; SF-268; SR; A549; SK-OV-3; MOLT-4; KM12; SK-MEL-5; COLO 205; BT-549; NCI/ADR-RES; SN12C; RPMI-8226; OVCAR-4; RXF 393.
Assay in all cases: growth of human tumour cells (NCI), 48 h

Regarding `CNC(=O)C1(N)c2ccccc2C=Cc2ccccc21`, the GI50 in the experiment on HOP-92, with EKVX, with 786-0, in the experiment with OVCAR-5, in the experiment with TK-10 and with NCI-H522 was > 100 µM (inactive) each time. The GI50 in the experiment with SF-268, with SR, in the experiment with A549, in the experiment on SK-OV-3, in the experiment with MOLT-4 and in the experiment with KM12 was > 100 µM (inactive) each time. For the same compound, the GI50 with SK-MEL-5, in the experiment on COLO 205, in the experiment with BT-549, in the experiment on NCI/ADR-RES, in the experiment on SN12C and in the experiment on RPMI-8226 was > 100 µM (inactive) each time. The GI50 in the experiment on OVCAR-4 is > 100 µM (inactive).

For `Cc1c2c(c(C)c3c[n+](C)ccc13)Oc1ccccc1O2`, the GI50 was 34.8 µM (inactive) with HOP-92; 9.44 µM (inactive) in the experiment on EKVX; 6.62 µM (inactive) with 786-0; 18.2 µM (inactive) with OVCAR-5; 50.9 µM (inactive) in the experiment with TK-10; 4.42 µM (inactive) in the experiment with NCI-H522. Besides, the GI50 is 1.64 µM (inactive) with SF-268; 1.84 µM (inactive) in the experiment on A549; 23.5 µM (inactive) in the experiment with SK-OV-3; 34.7 µM (inactive) in the experiment with RXF 393; 3.02 µM (inactive) in the experiment on MOLT-4; 0.82 µM (active) with KM12. The GI50 is 4.32 µM (inactive) in the experiment on SK-MEL-5; 6.34 µM (inactive) with COLO 205; 2.67 µM (inactive) with BT-549; > 100 µM (inactive) with NCI/ADR-RES; 1.77 µM (inactive) in the experiment with SN12C; 1.88 µM (inactive) in the experiment on RPMI-8226. Also, the GI50 with OVCAR-4 was 9.42 µM (inactive).

Consider `COc1ccc2c(c1)CCc1c-2n(CCN2CCCCC2)c2ccc(OC)cc12`, for which the GI50 with HOP-92 is > 10 µM (inactive); with EKVX, > 100 µM (inactive); in the experiment with 786-0, > 100 µM (inactive); in the experiment with OVCAR-5, > 100 µM (inactive); in the experiment with TK-10, > 100 µM (inactive); in the experiment on NCI-H522, 61.5 µM (inactive). Further, the GI50 was > 100 µM (inactive) with SF-268; > 100 µM (inactive) with SR; > 100 µM (inactive) in the experiment with A549; > 100 µM (inactive) with SK-OV-3; > 10 µM (inactive) with MOLT-4; > 100 µM (inactive) in the experiment with SK-MEL-5. Moreover, the GI50 with COLO 205 was > 100 µM (inactive); with BT-549, > 100 µM (inactive); in the experiment on NCI/ADR-RES it was 28.2 µM (inactive); with SN12C, > 100 µM (inactive); in the experiment on RPMI-8226, > 100 µM (inactive); in the experiment with OVCAR-4, > 100 µM (inactive).

Turning to `CC1(C)CC(=O)c2c(nc3c4c([nH]c(-c5ccc(Br)cc5)c24)CC(C)(C)C3)C1`, the GI50 is 28.7 µM (inactive) with HOP-92; 50.2 µM (inactive) in the experiment with EKVX; 22 µM (inactive) in the experiment on 786-0; 84.9 µM (inactive) in the experiment on OVCAR-5; 61.1 µM (inactive) in the experiment with TK-10; 23.6 µM (inactive) in the experiment with NCI-H522. Moreover, the GI50 is 55.6 µM (inactive) in the experiment with SF-268; 8.65 µM (inactive) in the experiment with SR; 29.6 µM (inactive) in the experiment on A549; > 100 µM (inactive) with SK-OV-3; 22.8 µM (inactive) with RXF 393; 13.8 µM (inactive) in the experiment on MOLT-4. For the same compound, the GI50 was 33.4 µM (inactive) in the experiment with KM12; 26.8 µM (inactive) in the experiment on SK-MEL-5; 19.8 µM (inactive) in the experiment with COLO 205; 35.8 µM (inactive) in the experiment on BT-549; 33.7 µM (inactive) in the experiment on NCI/ADR-RES; 98.6 µM (inactive) in the experiment with SN12C. Further, the GI50 in the experiment on OVCAR-4 was 30.7 µM (inactive).

On to `Cc1ccc2c(c1)-c1nc(N)c(C#N)c(-c3ccc(Cl)cc3)c1CCS2(=O)=O`, for which the GI50 was 36.1 µM (inactive) in the experiment with HOP-92; 40.6 µM (inactive) in the experiment on 786-0; 66.4 µM (inactive) in the experiment with TK-10; 29.8 µM (inactive) with NCI-H522; 67.6 µM (inactive) with SF-268; 24.5 µM (inactive) with SR. The GI50 in the experiment on A549 is 34.8 µM (inactive); in the experiment with KM12, 33.3 µM (inactive); in the experiment with SK-MEL-5 it was 18.2 µM (inactive); in the experiment on COLO 205, 24.7 µM (inactive); with BT-549, 49 µM (inactive); with NCI/ADR-RES it was 36.2 µM (inactive). Also, the GI50 is 55.7 µM (inactive) in the experiment on SN12C and 52 µM (inactive) in the experiment on OVCAR-4.

Consider `CN(C)Cc1cc(C(=O)/C=C/c2ccc([N+](=O)[O-])cc2)cc(CN(C)C)c1O`, for which the GI50 in the experiment with HOP-92 is 8.83 µM (inactive); in the experiment with EKVX, 12.8 µM (inactive); with 786-0, 2.31 µM (inactive); in the experiment on OVCAR-5, 16.6 µM (inactive); in the experiment with TK-10 it was 16 µM (inactive); in the experiment on NCI-H522, 4.74 µM (inactive). In addition, the GI50 in the experiment on SF-268 was 16 µM (inactive); with SR, 4.12 µM (inactive); in the experiment with A549, 22.7 µM (inactive); in the experiment with RXF 393, 14.2 µM (inactive); in the experiment with MOLT-4, 18.9 µM (inactive); in the experiment on KM12, 11.9 µM (inactive). The GI50 with SK-MEL-5 was 11.3 µM (inactive); with COLO 205, 1.99 µM (inactive); with BT-549, 13.6 µM (inactive); in the experiment on NCI/ADR-RES it was 26.7 µM (inactive); in the experiment with SN12C it was 7.8 µM (inactive); with RPMI-8226, 2.43 µM (inactive).

With `C=C1CC(COc2ccc3c(C)cc(=O)oc3c2)(c2ccccc2)OC1=O` (stereo not given), the GI50 in the experiment with HOP-92 is 0.394 µM (active); with EKVX, 9.29 µM (inactive); in the experiment with 786-0, 1.48 µM (inactive); in the experiment with OVCAR-5, 12.1 µM (inactive); with TK-10, 1.62 µM (inactive); with NCI-H522, 1.74 µM (inactive). The GI50 with SF-268 was 5.33 µM (inactive); in the experiment with SR, 1.7 µM (inactive); in the experiment with A549 it was 11.5 µM (inactive); in the experiment on SK-OV-3, 4.17 µM (inactive); in the experiment on MOLT-4, 1.68 µM (inactive); in the experiment on KM12, 5.47 µM (inactive). For the same compound, the GI50 is 2.2 µM (inactive) with SK-MEL-5; 1.34 µM (inactive) with COLO 205; 1.74 µM (inactive) in the experiment with BT-549; 2.28 µM (inactive) with NCI/ADR-RES; 5.27 µM (inactive) with SN12C; 0.292 µM (active) in the experiment on RPMI-8226. In the experiment on OVCAR-4, the GI50 is 2.16 µM (inactive).

Regarding `C[N+]1(c2ccccc2)C=C(c2ccccc2)SC1=S` (stereo not given), the GI50 with EKVX was 18.1 µM (inactive); with 786-0, > 100 µM (inactive); with OVCAR-5, > 100 µM (inactive); in the experiment on TK-10, > 100 µM (inactive); with NCI-H522, 30.6 µM (inactive); in the experiment on SF-268 it was > 100 µM (inactive). For the same compound, the GI50 in the experiment with SR was > 100 µM (inactive); in the experiment on A549 it was > 100 µM (inactive); in the experiment on RXF 393, 1.87 µM (inactive); in the experiment with KM12, > 100 µM (inactive); with SK-MEL-5, 33.4 µM (inactive); in the experiment with COLO 205, 23.1 µM (inactive). The GI50 in the experiment on BT-549 was > 100 µM (inactive); in the experiment on NCI/ADR-RES, > 100 µM (inactive); in the experiment with SN12C, > 100 µM (inactive); with RPMI-8226 it was 21 µM (inactive).

As to `CCOC(=O)c1c(NC(=O)c2ccccc2)sc2c1CCC2`, the GI50 in the experiment with EKVX, in the experiment on 786-0, in the experiment on OVCAR-5, with TK-10, with SF-268 and with SR was > 100 µM (inactive) in each case. Besides, the GI50 with A549, in the experiment with RXF 393, in the experiment with MOLT-4, in the experiment with KM12, with SK-MEL-5 and in the experiment on COLO 205 was > 100 µM (inactive) each time. Moreover, the GI50 in the experiment with BT-549, in the experiment with NCI/ADR-RES, in the experiment with SN12C and in the experiment with RPMI-8226 was > 100 µM (inactive) in each case.

Turning to `NC(=O)c1ccc(C(=O)Nc2ccc([As](=O)(O)O)cc2)cc1`, the GI50 in the experiment on HOP-92, in the experiment with EKVX, with 786-0, with OVCAR-5, in the experiment with TK-10 and in the experiment on NCI-H522 was > 100 µM (inactive) each time. The GI50 in the experiment on SF-268, in the experiment with A549, in the experiment with SK-OV-3, in the experiment on RXF 393, in the experiment with MOLT-4 and in the experiment on KM12 was > 100 µM (inactive) in each case. Also, the GI50 in the experiment on SK-MEL-5, in the experiment with COLO 205, with BT-549, in the experiment with NCI/ADR-RES, in the experiment with SN12C and in the experiment on RPMI-8226 was > 100 µM (inactive) each time. Moreover, in the experiment with OVCAR-4, the GI50 is > 100 µM (inactive).

Turning to `C[N+]1(C)CC[N+](C)(C)[BH-]1C(O)O`, the GI50 with HOP-92, in the experiment on EKVX, in the experiment on 786-0, in the experiment with OVCAR-5, with TK-10 and in the experiment with NCI-H522 was > 100 µM (inactive) each time. Also, the GI50 in the experiment on SF-268, in the experiment with SR, with A549, in the experiment on RXF 393, in the experiment on MOLT-4 and in the experiment on KM12 was > 100 µM (inactive) throughout. Besides, the GI50 in the experiment with SK-MEL-5, in the experiment with COLO 205, in the experiment with BT-549, with NCI/ADR-RES, in the experiment on SN12C and with OVCAR-4 was > 100 µM (inactive) throughout.
